Results reported in ChEMBL document CHEMBL5653615 (J Biol Chem, 2013).

Columns and labels:
[1] = target: T1, Serine/threonine-protein kinase Nek2 (Homo sapiens) (UniProt P51955); assay: Inhibition of human NEK2 at 18.6 nM by HotSpot assay relative to control
T1 sequence (whole entry): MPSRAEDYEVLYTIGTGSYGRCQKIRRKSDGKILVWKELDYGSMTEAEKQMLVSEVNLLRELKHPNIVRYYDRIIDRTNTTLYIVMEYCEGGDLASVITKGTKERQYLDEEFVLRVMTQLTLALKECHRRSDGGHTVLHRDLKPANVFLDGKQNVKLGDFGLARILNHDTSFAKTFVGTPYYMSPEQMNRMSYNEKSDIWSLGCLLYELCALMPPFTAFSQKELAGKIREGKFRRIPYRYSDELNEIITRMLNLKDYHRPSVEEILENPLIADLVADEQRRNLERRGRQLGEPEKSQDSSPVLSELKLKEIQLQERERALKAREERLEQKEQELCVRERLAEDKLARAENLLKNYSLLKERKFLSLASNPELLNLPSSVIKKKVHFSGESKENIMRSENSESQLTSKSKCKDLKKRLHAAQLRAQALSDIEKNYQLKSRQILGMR

[2] = target: T2, Mitogen-activated protein kinase kinase kinase 2 (Homo sapiens) (UniProt Q9Y2U5); assay: Inhibition of human MEKK2 at 18.6 nM by HotSpot assay relative to control
T2 sequence (whole entry): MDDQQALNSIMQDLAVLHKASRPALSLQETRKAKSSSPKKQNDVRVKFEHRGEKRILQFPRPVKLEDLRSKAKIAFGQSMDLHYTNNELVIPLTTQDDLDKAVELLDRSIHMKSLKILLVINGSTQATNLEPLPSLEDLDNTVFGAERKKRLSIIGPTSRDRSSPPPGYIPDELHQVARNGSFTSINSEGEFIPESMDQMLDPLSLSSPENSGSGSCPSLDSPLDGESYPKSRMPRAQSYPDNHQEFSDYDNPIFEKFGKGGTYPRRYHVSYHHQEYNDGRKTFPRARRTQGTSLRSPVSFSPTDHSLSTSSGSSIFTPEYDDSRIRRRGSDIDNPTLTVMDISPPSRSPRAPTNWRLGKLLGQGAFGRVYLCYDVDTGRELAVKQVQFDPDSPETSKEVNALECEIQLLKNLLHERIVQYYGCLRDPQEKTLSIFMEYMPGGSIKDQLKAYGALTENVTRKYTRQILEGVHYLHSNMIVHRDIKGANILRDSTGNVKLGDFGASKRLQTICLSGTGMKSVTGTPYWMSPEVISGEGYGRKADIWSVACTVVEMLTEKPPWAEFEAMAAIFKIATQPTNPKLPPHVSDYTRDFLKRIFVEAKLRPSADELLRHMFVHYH

[3] = target: Receptor-type tyrosine-protein kinase FLT3 (Homo sapiens) (UniProt P36888); assay: Inhibition of human FLT3 at 18.6 nM by HotSpot assay relative to control
Chain of Receptor-type tyrosine-protein kinase FLT3 (Homo sapiens) (P36888 whole entry): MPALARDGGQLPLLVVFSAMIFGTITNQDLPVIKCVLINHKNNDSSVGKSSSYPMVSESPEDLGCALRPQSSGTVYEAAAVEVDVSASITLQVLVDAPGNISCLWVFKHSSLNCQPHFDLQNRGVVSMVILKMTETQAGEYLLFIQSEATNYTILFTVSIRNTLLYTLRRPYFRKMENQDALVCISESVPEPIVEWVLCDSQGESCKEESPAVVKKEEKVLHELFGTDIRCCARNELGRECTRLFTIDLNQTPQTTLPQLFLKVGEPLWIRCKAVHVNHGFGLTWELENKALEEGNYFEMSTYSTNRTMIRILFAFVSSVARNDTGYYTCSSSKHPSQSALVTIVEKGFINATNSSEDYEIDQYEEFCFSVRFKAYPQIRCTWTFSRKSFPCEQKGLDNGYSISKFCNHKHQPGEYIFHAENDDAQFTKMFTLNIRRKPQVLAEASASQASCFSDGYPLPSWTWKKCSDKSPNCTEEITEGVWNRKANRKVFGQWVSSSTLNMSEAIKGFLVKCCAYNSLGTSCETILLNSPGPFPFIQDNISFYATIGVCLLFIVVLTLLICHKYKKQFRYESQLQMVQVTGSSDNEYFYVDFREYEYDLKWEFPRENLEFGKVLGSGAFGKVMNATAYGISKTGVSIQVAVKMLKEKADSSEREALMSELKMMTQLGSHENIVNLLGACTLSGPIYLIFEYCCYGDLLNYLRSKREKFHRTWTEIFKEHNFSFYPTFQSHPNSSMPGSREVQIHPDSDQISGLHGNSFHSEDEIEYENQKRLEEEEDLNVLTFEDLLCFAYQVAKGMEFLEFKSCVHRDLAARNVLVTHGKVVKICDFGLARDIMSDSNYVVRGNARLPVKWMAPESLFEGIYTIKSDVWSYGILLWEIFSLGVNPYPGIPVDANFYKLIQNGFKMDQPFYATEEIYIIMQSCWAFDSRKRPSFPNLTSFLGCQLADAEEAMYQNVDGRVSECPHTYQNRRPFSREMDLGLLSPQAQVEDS

[4] = target: T3, Activin receptor type-1B (Homo sapiens) (UniProt P36896); assay: Inhibition of human ALK4 at 18.6 nM by HotSpot assay relative to control
T3 sequence (whole entry): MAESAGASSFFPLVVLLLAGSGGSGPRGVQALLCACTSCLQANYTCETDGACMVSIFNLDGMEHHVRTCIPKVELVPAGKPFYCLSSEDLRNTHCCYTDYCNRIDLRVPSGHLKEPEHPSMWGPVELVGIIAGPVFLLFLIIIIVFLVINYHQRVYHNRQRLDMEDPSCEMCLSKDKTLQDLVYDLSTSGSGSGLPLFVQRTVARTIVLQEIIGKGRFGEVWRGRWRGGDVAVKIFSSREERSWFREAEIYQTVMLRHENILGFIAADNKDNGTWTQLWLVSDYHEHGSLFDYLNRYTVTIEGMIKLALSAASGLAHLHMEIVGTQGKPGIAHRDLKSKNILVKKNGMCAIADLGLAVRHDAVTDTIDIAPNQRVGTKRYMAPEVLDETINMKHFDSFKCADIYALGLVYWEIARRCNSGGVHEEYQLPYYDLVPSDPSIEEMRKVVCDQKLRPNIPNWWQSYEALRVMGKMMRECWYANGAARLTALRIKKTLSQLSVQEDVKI

[5] = target: Mitogen-activated protein kinase kinase kinase 20 (Homo sapiens) (UniProt Q9NYL2); assay: Inhibition of human MLTK at 18.6 nM by HotSpot assay relative to control
Chain of Mitogen-activated protein kinase kinase kinase 20 (Homo sapiens) (Q9NYL2 2-800 limits assumed): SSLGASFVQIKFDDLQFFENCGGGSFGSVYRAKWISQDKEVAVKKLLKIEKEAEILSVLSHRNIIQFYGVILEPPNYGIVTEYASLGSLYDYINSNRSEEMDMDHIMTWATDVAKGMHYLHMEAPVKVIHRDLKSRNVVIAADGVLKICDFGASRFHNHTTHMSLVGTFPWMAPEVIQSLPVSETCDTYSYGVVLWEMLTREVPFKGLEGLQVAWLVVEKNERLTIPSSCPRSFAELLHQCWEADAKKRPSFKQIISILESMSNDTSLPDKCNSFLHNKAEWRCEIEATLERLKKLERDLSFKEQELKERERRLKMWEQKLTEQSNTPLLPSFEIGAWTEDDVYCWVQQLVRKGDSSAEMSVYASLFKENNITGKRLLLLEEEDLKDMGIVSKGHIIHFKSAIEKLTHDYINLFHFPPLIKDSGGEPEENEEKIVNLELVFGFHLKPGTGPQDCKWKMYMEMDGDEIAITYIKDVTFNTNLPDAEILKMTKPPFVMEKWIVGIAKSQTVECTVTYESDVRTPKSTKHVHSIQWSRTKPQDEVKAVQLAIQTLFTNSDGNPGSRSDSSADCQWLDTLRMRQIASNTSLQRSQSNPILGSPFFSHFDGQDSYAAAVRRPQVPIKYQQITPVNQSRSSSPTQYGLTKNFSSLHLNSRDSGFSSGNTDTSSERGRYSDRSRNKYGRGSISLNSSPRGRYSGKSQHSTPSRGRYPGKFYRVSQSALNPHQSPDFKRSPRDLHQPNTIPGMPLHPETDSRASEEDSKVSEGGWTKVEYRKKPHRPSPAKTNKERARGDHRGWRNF

[6] = target: Serine/threonine-protein kinase PAK 3 (Homo sapiens) (UniProt O75914); assay: Inhibition of human PAK3 at 1.82 nM by HotSpot assay relative to control
Chain of Serine/threonine-protein kinase PAK 3 (Homo sapiens) (O75914 whole entry, looked up): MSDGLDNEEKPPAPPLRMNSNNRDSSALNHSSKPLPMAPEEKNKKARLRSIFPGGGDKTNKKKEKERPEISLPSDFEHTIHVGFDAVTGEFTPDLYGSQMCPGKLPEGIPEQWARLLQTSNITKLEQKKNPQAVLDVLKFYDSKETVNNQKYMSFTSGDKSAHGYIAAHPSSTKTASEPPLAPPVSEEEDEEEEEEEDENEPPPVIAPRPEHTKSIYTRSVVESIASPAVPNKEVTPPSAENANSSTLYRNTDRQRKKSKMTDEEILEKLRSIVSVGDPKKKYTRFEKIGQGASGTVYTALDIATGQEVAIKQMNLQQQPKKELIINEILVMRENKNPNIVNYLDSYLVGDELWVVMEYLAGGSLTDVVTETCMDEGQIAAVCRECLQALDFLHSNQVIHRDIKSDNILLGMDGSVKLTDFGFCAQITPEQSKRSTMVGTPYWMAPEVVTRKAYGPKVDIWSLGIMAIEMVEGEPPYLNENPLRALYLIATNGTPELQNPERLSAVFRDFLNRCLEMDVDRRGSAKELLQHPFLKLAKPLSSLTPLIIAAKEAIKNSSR

[7] = target: Tyrosine-protein kinase Srms (Homo sapiens) (UniProt Q9H3Y6); assay: Inhibition of human SRMS at 1.82 nM by HotSpot assay relative to control
Chain of Tyrosine-protein kinase Srms (Homo sapiens) (Q9H3Y6 whole entry): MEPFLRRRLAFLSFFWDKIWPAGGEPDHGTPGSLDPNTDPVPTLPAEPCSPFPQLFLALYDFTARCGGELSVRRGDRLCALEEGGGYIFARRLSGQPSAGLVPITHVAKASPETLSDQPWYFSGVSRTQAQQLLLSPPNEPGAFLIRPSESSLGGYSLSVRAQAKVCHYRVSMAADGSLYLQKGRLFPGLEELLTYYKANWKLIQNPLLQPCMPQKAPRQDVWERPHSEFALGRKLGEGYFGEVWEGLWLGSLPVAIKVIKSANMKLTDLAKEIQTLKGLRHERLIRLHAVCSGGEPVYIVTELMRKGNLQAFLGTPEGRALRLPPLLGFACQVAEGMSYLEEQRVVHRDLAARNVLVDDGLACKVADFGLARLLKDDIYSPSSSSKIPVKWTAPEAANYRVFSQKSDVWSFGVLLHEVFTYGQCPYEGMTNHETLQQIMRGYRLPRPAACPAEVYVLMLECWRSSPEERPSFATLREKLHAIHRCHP

[8] = target: T4, Aurora kinase C (Homo sapiens) (UniProt Q9UQB9); assay: Inhibition of human Aurora C at 1.82 nM by HotSpot assay relative to control
T4 sequence (whole entry): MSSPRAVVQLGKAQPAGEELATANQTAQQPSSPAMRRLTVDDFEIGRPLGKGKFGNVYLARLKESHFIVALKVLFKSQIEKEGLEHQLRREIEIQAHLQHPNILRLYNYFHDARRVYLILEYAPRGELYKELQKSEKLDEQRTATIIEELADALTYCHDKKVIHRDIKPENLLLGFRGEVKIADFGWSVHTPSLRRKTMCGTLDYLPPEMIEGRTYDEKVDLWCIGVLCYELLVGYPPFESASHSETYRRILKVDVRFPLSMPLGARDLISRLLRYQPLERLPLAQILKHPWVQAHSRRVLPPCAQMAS

inhibition [1] [%]	inhibition [2] [%]	inhibition [3] [%]	inhibition [4] [%]	inhibition [5] [%]	inhibition [6] [%]	inhibition [7] [%]	inhibition [8] [%]	Structure (SMILES)
4.82	-2.2	-4.3	-0.44	-2.34				C[C@]1(O)C[C@@H](c2nc(-c3ccc4ccc(-c5ccccc5)nc4c3)c3c(N)nccn32)C1
					-2.89	-3.77	35.7	C[C@@]1(C(=O)Nc2ccc(F)nc2)CCCN1c1nc(Nc2cc(C3CC3)n[nH]2)c2cccn2n1
